Results reported in publication PMC3723632, “A Multi-targeted Drug Candidate with Dual Anti-HIV and Anti-HSV Activity” (PLoS Pathogens, 2013).
Values after ≈ are worked out from the molar mass of the structure shown. Where two headings read alike, the source gives them in different places.

What was measured:
HIV-1(IIIB) = assay: Anti-HIV-1 activity in CD4+ T-lymphocyte CEM cell cultures; type: cell-based; details: Human immunodeficiency virus 1, CCRF-CEM, virus-induced cytopathicity
From the text: (§1) Human CD4 ^+ T-lymphocyte CEM cell cultures were inoculated with HIV-1 and HIV-2 and exposed to adefovir, tenofovir, or PMEO-DAPym. […]

HIV-2(ROD) = assay: Anti-HIV-2 activity in CD4+ T-lymphocyte CEM cell cultures; type: cell-based; details: Human immunodeficiency virus 2, CCRF-CEM; HIV-2(ROD), CEM, virus-induced cytopathicity; read-out: EC50
From the text: as §1

HSV-1 (KOS strain) = assay: Pre-treatment of PHK cell cultures, HSV-1 infection (CPE)
Description: (§2) The HSV-induced cytopathic effect (CPE) was evaluated in HSV-infected HEL and PHK cultures as described [44], [48].

HSV-2 (G) [1] = assay: HSV-2 replication in human ex vivo tonsillar (lymphoid) tissue, viral DNA; type: cell-based
From the text: Figure 5 Suppression of HSV-2 in infected human ex vivo tonsillar tissue by adefovir and PMEO-DAPym. Blocks of human tonsillar tissue were inoculated ex vivo with HSV-2 (G) and treated or not with adefovir or PMEO-DAPym. We monitored HSV-2 (G) replication by measuring viral DNA in culture media at different times throughout the culture period. Presented are means ± SEM of cumulative HSV-2 (G) replication in tissues from two to six donors. For each donor, data represent pooled viral release from 27 tissue blocks.
Figure 7 Suppression of HSV-2 in single-infected and HIV-1 co-infected human ex vivo tonsillar tissue by adefovir and PMEO-DAPym. Panels A and B: Blocks of human tonsillar tissue from five different donors were co-inoculated ex vivo with HSV-2 (G) and HIV-1 (LAI) and treated or not with adefovir or PMEO-DAPym (1 µg/ml). For tissue from each donor, we monitored replication of both viruses by evaluating their accumulation in the culture media bathing 27 tissue blocks at different times throughout the culture. We evaluated HIV-1 replication by measuring p24gag and HSV-2 (G) replication by measuring HSV-2 viral DNA. Panel A: Presented are kinetics of HSV-2 (G) and HIV-1 (LAI) replication (insert). Each point represents the mean ± SEM of viral replication in tissues from five donors. Panel B: Presented are means ± SEM of cumulative HSV-2 (G) and HIV-1 (LAI) replication (insert).
Human tonsillar tissues were obtained from patients undergoing routine tonsillectomy at the Children's National Medical Center (Washington, DC) under IRB-approved protocol. Cervical tissues were obtained through the National Disease Research Interchange (NDRI, Philadelphia, PA). Tissues were dissected into blocks of about 2×2×2 mm and placed onto collagen sponge gels in culture medium at the air-liquid interface as described earlier. For tonsillar tissue for each experimental condition, 27 tissue blocks (9 blocks/well filled with 3 ml of medium) were inoculated with HSV-1 (strain F) or HSV-2 (strains G and MS). In coinfection experiments, tissue blocks were sequentially infected with HSV-2 (G) and HIV-1 (IIIB) (obtained from the Rush University Virology Quality Assurance Laboratory, Chicago, IL). Drugs (adefovir and PMEO-DAPym) were added to the culture medium 12 h prior to viral infection and replenished at each culture medium change.
For cervico-vaginal tissue, 16 blocks were infected by immersion in HSV-2G-containing medium and maintained on the gelfoam rafts. Adefovir was added at the time of infection and replenished at each culture medium change. HSV replication was evaluated from the release of viral DNA into the culture medium as measured with quantitative real-time PCR [18]. We evaluated HIV-1 replication from the release of p24 capsid antigen using a bead-based assay.

HSV-2 (G) [2] = assay: HSV-2 infection of primary monocyte/macrophage (M/M) cultures; type: cell-based
Description: We obtained human PBMC from the blood of healthy seronegative donors using Ficoll–Hypaque density gradient centrifugation. The PBMC were resuspended in RPMI 1640 medium supplemented with 20% heat-inactivated serum and then seeded into 48-well plates (1.8×10^6 cells/well). M/M were separated by adherence onto plastic. After 5 days, non-adherent cells were carefully removed by repeated gentle washings with warm medium, and adherent M/M were cultured for an additional 3 days to mature and to form a monolayer. M/M were estimated to be 10^5 cells/well at the time of infection. […]. Similarly, macrophage cultures were treated with the same concentrations of adefovir and tenofovir. Macrophage cultures were then infected with HSV-2 (G) (100 TCID50) in the presence of the compounds. After 2 h of adsorption, the cultures were extensively washed to remove any residual virus particles. Fresh complete medium and compounds, at the established concentrations, were then added to the cultures. Appropriate positive (infected but not treated) and mock-infected negative (uninfected and untreated) M/M controls were run for each experiment as well. All assays were performed in triplicate. […] We determined the amount of infectious virus in the supernatants 5–6 days after infection using the cytopathic effect assay. Tenfold serially diluted supernatants were added to confluent monolayers of Vero cells in 96-well plates (100 µl/well, 6 parallel wells). […] The titers of virus produced were calculated according to the Reed and Muench method and expressed as 50% tissue culture infective dose per mL (TCID50/mL).

HSV-2 (G strain) = assay: Pre-treatment of PHK cell cultures, HSV-2 infection (CPE)
Description: as §2

## Nc1nc2c(ncn2COCCO)c(=O)[nH]1 [Acyclovir, 9-(2-hydroxyethyloxymethyl)guanine]
HIV-1(IIIB)
  EC50: > 100 µg/mL
HIV-2(ROD)
  EC50: > 100 µg/mL
HSV-1 (KOS strain); Human alphaherpesvirus 1, read-out: 50% effective concentration, PHK, HSV-1 KOS, +2 h to 72 h (control, drug present whole incubation)
  EC50: 0.33 ± 0.25 µg/mL (≈ 1.47 µM)
HSV-1 (KOS strain); Human alphaherpesvirus 1, read-out: 50% effective concentration, PHK, HSV-1 KOS, pretreatment −2.5 h to 0 h
  EC50: > 50 µg/mL
HSV-1 (KOS strain); Human alphaherpesvirus 1, read-out: 50% effective concentration, PHK, HSV-1 KOS, pretreatment −6 h to 0 h
  EC50: > 50 µg/mL
HSV-1 (KOS strain); Human alphaherpesvirus 1, read-out: 50% effective concentration, PHK, HSV-1 KOS, pretreatment −18 h to 0 h
  EC50: > 50 µg/mL
HSV-2 (G) [1]; Human alphaherpesvirus 2, human lymphoid tissue ex vivo, 0.3 µg/mL, read-out: Inhibition of viral replication (% to control)
  inhibition at 0.3 µg/mL: 99.9%
HSV-2 (G) [1]; Human alphaherpesvirus 2, human lymphoid tissue ex vivo, 3 µg/mL, read-out: Inhibition of viral replication (% to control)
  inhibition at 3 µg/mL: > 99%
HSV-2 (G) [1]; human lymphoid tissue ex vivo, 0.3 µg/mL
  HSV-2 DNA copies: 1.69 e+5 copies
HSV-2 (G) [1]; human lymphoid tissue ex vivo, 3 µg/mL
  HSV-2 DNA copies: 2.83 e+4 copies
HSV-2 (G) [1]; human lymphoid tissue ex vivo, 3 µg/mL, listed as ACV
  Inhibition of viral replication (% to control): 99.98%
HSV-2 (G) [2]; 0.000025 µg/ml
  Cytopathicity (CPE) on macrophages 6 days after infection % CPE: 75%
  Virus production by HSV2-infected macrophages 6 days after infection (CPE reduction): 1.3×10^4 TCID50/ml
HSV-2 (G) [2]; 0.000128 µg/ml
  Cytopathicity (CPE) on macrophages 6 days after infection % CPE: 40%
  Virus production by HSV2-infected macrophages 6 days after infection (CPE reduction): 7.2×10^3 TCID50/ml
HSV-2 (G) [2]; 0.00064 µg/ml
  Cytopathicity (CPE) on macrophages 6 days after infection % CPE: 10%
  Virus production by HSV2-infected macrophages 6 days after infection (CPE reduction): 3.5×10^2 TCID50/ml
HSV-2 (G) [2]; 0.003 µg/ml
  Virus production by HSV2-infected macrophages 6 days after infection (CPE reduction): No virus
HSV-2 (G) [2]; 0.016 µg/ml
  Virus production by HSV2-infected macrophages 6 days after infection (CPE reduction): No virus
HSV-2 (G) [2]; 0.08 µg/ml
  Virus production by HSV2-infected macrophages 6 days after infection (CPE reduction): No virus
HSV-2 (G) [2]; Human alphaherpesvirus 2, 144 h, 0.000025 µg/ml, M/M, day 6, read-out: Inhibition of viral replication (% to control)
  inhibition at 25 pg/mL: 7.2%
HSV-2 (G) [2]; Human alphaherpesvirus 2, 144 h, 0.000128 µg/ml, M/M, day 6, read-out: Inhibition of viral replication (% to control)
  inhibition at 0.000128 µg/mL: 49%
HSV-2 (G) [2]; Human alphaherpesvirus 2, 144 h, 0.00064 µg/ml, M/M, day 6, read-out: Inhibition of viral replication (% to control)
  inhibition at 0.00064 µg/mL: 97%
HSV-2 (G) [2]; Human alphaherpesvirus 2, 144 h, 0.003 µg/ml, M/M, day 6, read-out: Inhibition of viral replication (% to control)
  inhibition at 0.003 µg/mL: 100%
HSV-2 (G) [2]; Human alphaherpesvirus 2, 144 h, 0.016 µg/ml, M/M, day 6, read-out: Inhibition of viral replication (% to control)
  inhibition at 0.016 µg/mL: 100%
HSV-2 (G) [2]; Human alphaherpesvirus 2, 144 h, 0.08 µg/ml, M/M, day 6, read-out: Inhibition of viral replication (% to control)
  inhibition at 0.08 µg/mL: 100%
HSV-2 (G) [2]; Human alphaherpesvirus 2, HSV-2 (G), human monocyte/macrophages
  EC50: 0.13 ± 0.015 µg/mL (≈ 0.577 µM)
HSV-2 (G strain); Human alphaherpesvirus 2, read-out: 50% effective concentration, PHK, HSV-2 G, +2 h to 72 h (control, drug present whole incubation)
  EC50: 0.41 ± 0.13 µg/mL (≈ 1.82 µM)
HSV-2 (G strain); Human alphaherpesvirus 2, read-out: 50% effective concentration, PHK, HSV-2 G, pretreatment −2.5 h to 0 h
  EC50: 50 µg/mL (≈ 222 µM)
HSV-2 (G strain); Human alphaherpesvirus 2, read-out: 50% effective concentration, PHK, HSV-2 G, pretreatment −6 h to 0 h
  EC50: > 50 µg/mL
HSV-2 (G strain); Human alphaherpesvirus 2, read-out: 50% effective concentration, PHK, HSV-2 G, pretreatment −18 h to 0 h
  EC50: > 50 µg/mL
